Here are results for 35 compounds from patent publication US9000045B2, “CETP activity inhibitors” (Japan Tobacco Inc., priority 1997, dated 2015).

Assay [1] addresses T1, CETP (Homo sapiens, UniProt P11597).
T1 sequence (P11597 18-493): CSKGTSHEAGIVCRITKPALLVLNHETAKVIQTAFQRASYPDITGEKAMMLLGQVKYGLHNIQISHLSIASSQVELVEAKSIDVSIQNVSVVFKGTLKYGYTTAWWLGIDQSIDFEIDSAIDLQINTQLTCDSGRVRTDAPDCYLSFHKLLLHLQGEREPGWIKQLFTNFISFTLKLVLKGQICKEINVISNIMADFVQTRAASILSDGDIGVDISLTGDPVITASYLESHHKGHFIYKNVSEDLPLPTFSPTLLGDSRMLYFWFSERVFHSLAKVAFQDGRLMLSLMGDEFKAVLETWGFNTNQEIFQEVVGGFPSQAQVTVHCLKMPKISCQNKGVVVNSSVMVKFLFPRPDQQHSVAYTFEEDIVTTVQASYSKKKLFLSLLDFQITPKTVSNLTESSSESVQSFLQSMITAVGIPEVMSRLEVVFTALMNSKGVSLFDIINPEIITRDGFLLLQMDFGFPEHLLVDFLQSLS
The assay can be described thus: Ex vivo CETP activity inhibitory effect of plasma from transgenic mice. The conditions noted are these: mouse, po, p.o., 6 hours after administration, transgenic mice with human CETP gene, read-out: CETP activity inhibitory rate in plasma from transgenic mouse. More on the design: from tissue; host or cells: plasma of transgenic mice carrying the human CETP gene. On the procedure: Potassium bromide (KBr) was added to the plasma of healthy subjects (40 ml) to adjust specific gravity to d=1.125 g/ml. Density gradient centrifugation (227,000×g, 4° C., 17 hours) was conducted to obtain a fraction with specific gravity d>1.125 g/ml (HDL3 fraction). The fraction thus obtained was dialyzed against a PBS solution [10 mM Na2HPO4/10 mM NaH2PO4/0.15 M NaCl/1 mM EDTA (pH 7.4)]. Then, tritium-labeled cholesterol (10 nM) (50.3 Ci/mM) was dissolved in 95% ethanol and added gradually to the above HDL3 fraction under stirring. The solution was incubated for 18 hours at 37° C. [Tritium-labeled cholesterol was esterified by this procedure by the action of lecithin:cholesterol acyltransferase (LCAT) present on the surface of HDL3 and taken up into the interior of HDL3 as tritium-labeled cholesterylester ([^3H]CE)]. After incubation, KBr was added and specific gravity was adjusted to d=1.21 g/ml. Density gradient centrifugation (227,000×g, 4° C., 17 hours) was conducted and the fraction with d<1.21 g/ml was harvested. The fraction thus obtained was dialyzed against the above PBS solution to obtain HDL3 that took up [^3H]CE ([^3H]CE-HDL3, specific gravity: 1.125<d<1.21, specific activity: 101,000 dpm/nM), which served as donor lipoprotein.
Physiological saline (specific gravity d=1.006 g/ml) was layered upon the plasma of healthy subjects (100 ml). Density gradient centrifugation (227,000×g, 4° C., 4 hours) was conducted and the fraction with specific gravity d>1.006 g/ml was harvested. KBr was added to the fraction thus obtained to adjust specific gravity to d=1.063 g/ml and density gradient centrifugation (227,000×g, 4° C., 20 hours) was conducted to harvest the fraction with specific gravity […]. The thus-obtained fraction was dialyzed against the above PBS solution to obtain fractions containing IDL and LDL (specific gravity: 1.006<d<1.063), which served as acceptor lipoprotein.
Samples were suspended in a 0.5% methylcellulose solution and administered orally using a plastic probe to transgenic mice having introduced human CETP gene (hereafter referred to as mice; prepared using the method described in Japanese Patent Application No. Hei 8-130660), which had been fasted overnight. Blood was collected before administration, and 6 hours after administration CETP activity in the plasma was determined using the following method.
Donor lipoprotein ([^3H]CE-HDL3, containing 0.21 μg cholesterol) obtained in the above (1), acceptor lipoprotein obtained in the above (2) (containing 21 μg of cholesterol), and 0.9 μl of mice plasma were added to microtubes. A total volume was adjusted to 600 μl/tube with a TBS solution [10 mM Tris/0.15 M NaCl (pH 7.4)]. The microtubes were incubated for 15 hours at 37° C. or 4° C. Then, an ice-cooled TBS solution (400 μl/tube) and a 0.3% dextran sulfate solution (100 μl/tube) containing 0.15 M magnesium chloride were added to the microtubes and mixed well. After allowing the microtubes to stand for 30 minutes at 4° C., centrifugation (8,000 rpm, 4° C., 10 minutes) was carried out and radioactivity of the resulting supernatant (HDL fraction) was determined with a scintillation counter.

Assay [2] has as its target T1, CETP. Nature of the assay: In vitro CETP activity inhibitory effect in whole plasma. The class given is biochemical. More on the design: Plasma containing [^3H]CE-HDL3 (600,000 dpm/ml) was prepared by adding donor lipoprotein obtained in the above (1) to plasma from healthy subjects; from tissue; host or cells: whole plasma of healthy subjects. The conditions noted are these: plasma from healthy subjects containing [3H]CE-HDL3, incubated 4 hours at 37° C.; read-out: CETP activity inhibition in whole plasma IC50. On the procedure:
The fraction thus obtained was dialyzed against a PBS solution [10 mM Na2HPO4/10 mM NaH2PO4/0.15 M NaCl/1 mM EDTA (pH 7.4)]. Then, tritium-labeled cholesterol (10 nM) (50.3 Ci/mM) was dissolved in 95% ethanol and added gradually to the above HDL3 fraction under stirring. The solution was incubated for 18 hours at 37° C. […] After incubation, KBr was added and specific gravity was adjusted to d=1.21 g/ml. […] A sample solution was prepared using a 1:1 solution of N-methylpyrrolidone and polyethyleneglycol 400 as a solvent. […] Based on the inhibition rate (%) of CETP activity, IC50 value of each sample was calculated.

For `CC(C)CCC1(C(=O)Nc2ccccc2SSc2ccccc2NC(=O)C2(CCC(C)C)CCCCC2)CCCCC1` [Example 8], the inhibition at 100 mg/kg on CETP [1] is 25%. The IC50 (usually the concentration needed to halve the response being measured) on CETP [2] was found to be 3 µM.

As to `CC(C)CCC1(C(=O)Nc2ccccc2S)CCCCC1` [Example 11, N-(2-mercaptophenyl)-1-isopentylcyclohexanecarboxamide], on CETP [1], the inhibition at 10 mg/kg came out at 27%, the inhibition at 30 mg/kg was found to be 45% and the inhibition at 100 mg/kg turned out to be 57%. Besides, the IC50 on CETP [2] was determined as 5 µM.

In the case of `CC(C)C1(C(=O)Nc2ccccc2S)CCCCC1` [Example 14], at CETP [1], the inhibition at 30 mg/kg was 9%. Besides, at CETP [2], the IC50 is 8 µM.

Regarding `Cc1ccc(S)c(NC(=O)C2(CCC(C)C)CCCCC2)c1` [Example 22], at CETP [1], the inhibition at 10 mg/kg was 22% and the inhibition at 30 mg/kg worked out at 44%. Moreover, the IC50 at CETP [2] was determined as 56 µM.

As for `Cc1cccc(NC(=O)C2(CCC(C)C)CCCCC2)c1S` [Example 23], the inhibition at 30 mg/kg at CETP [1] was found to be 18%.

As for `Cc1ccc(NC(=O)C2(CCC(C)C)CCCCC2)c(S)c1` [Example 24], the inhibition at 30 mg/kg at CETP [1] came to 29%. Moreover, on CETP [2], the IC50 came to 29 µM.

Take `CC(=O)Sc1ccccc1NC(=O)C1(CCC(C)C)CCCCC1` [Example 25, S[2-(1-isopentylcyclohexanecarbonylamino)phenyl]thioacetate]: on CETP [1], the inhibition at 10 mg/kg came to 19%, the inhibition at 30 mg/kg came to 45% and the inhibition at 100 mg/kg came out at 52%. Besides, the IC50 on CETP [2] stood at 11 µM.

As for `CC(=O)N[C@H](C(=O)Sc1ccccc1NC(=O)C1(CCC(C)C)CCCCC1)C(C)C` [Example 25-45], the inhibition at 30 mg/kg at CETP [1] stood at 21%. For the same compound, the IC50 at CETP [2] amounted to 13 µM.

On to `CC(C)CCC1(C(=O)Nc2ccccc2SC(=O)c2ccc([N+](=O)[O-])cc2)CCCCC1` [Example 25-46], for which, on CETP [1], the inhibition at 100 mg/kg was found to be 35%. The IC50 on CETP [2] is 9 µM.

On to `CC(C)CCC1(C(=O)Nc2ccccc2SC(=O)c2ccccc2Cl)CCCCC1` [Example 25-49], for which the inhibition at 30 mg/kg on CETP [1] came to 16%. In addition, the IC50 at CETP [2] stood at 21 µM.

`CC(=O)OC(C)(C)C(=O)Sc1ccccc1NC(=O)C1(CCC(C)C)CCCCC1` [Example 25-52]: at CETP [1], the inhibition at 10 mg/kg was determined as 19% and the inhibition at 30 mg/kg turned out to be 40%. The IC50 at CETP [2] came out at 68 µM.

On to `CC(C)CCC1(C(=O)Nc2ccccc2SC(=O)C2CCN(C)CC2)CCCCC1` [Example 25-53], for which, on CETP [1], the inhibition at 30 mg/kg was 26%. Moreover, the IC50 on CETP [2] is 7 µM.

Consider `CC(C)C(C(=O)Nc1cc(Cl)c(Cl)cc1SC(=O)C(C)(C)C)C1CCCCC1` (stereo not shown) [Example 66-38], for which the IC50 on CETP [2] is 26 µM.

For the compound `CC(C)CC(C(=O)Nc1cc(Cl)c(Cl)cc1SC(=O)C(C)(C)C)C1CCCCC1` (stereo not shown) [Example 66-40], at CETP [2], the IC50 is 42 µM.

`CC(C)(C)C(=O)Sc1cc(Cl)c(Cl)cc1NC(=O)C(C)(C)C1CCCCC1` [Example 66-41]: the IC50 on CETP [2] worked out at 25 µM.

As for `CC(C)CC1(C(=O)Nc2cc(Cl)c(Cl)cc2SC(=O)C(C)(C)C)CCCCC1` [Example 66-42], the concentration for half-maximal inhibition (IC50) at CETP [2] was found to be 10 µM.

As to `CC(C)CCCC1(C(=O)Nc2cc(Cl)c(Cl)cc2SC(=O)C(C)(C)C)CCCCC1` [Example 66-43], on CETP [2], the IC50 was 23 µM.

Take `CC(C)(C)CC1(C(=O)Nc2cc(Cl)c(Cl)cc2SC(=O)C(C)(C)C)CCCCC1` [Example 66-46]: the IC50 at CETP [2] stood at 35 µM.

Consider `CC(C)(C)C(=O)Sc1cc(Cl)c(Cl)cc1NC(=O)C1(CCC2CC2)CCCCC1` [Example 66-48], for which the IC50 on CETP [2] was determined as 11 µM.

For `CC(C)CC1(C(=O)Nc2cc(Cl)c(Cl)cc2SC(=O)C(C)(C)C)CCCC1` [Example 66-49], the concentration for half-maximal inhibition (IC50) at CETP [2] stood at 40 µM.

Turning to `CC(C)(C)C(=O)Sc1cc(Cl)c(Cl)cc1NC(=O)C1(CC2CCCCC2)CCCC1` [Example 66-51], at CETP [2], the IC50 came to 45 µM.

As to `COC(=O)Sc1cc(Cl)c(Cl)cc1NC(=O)C1(C)CCCCC1` [Example 66-52], the IC50 at CETP [2] worked out at 46 µM.

With `CCNC(=O)Sc1cc(Cl)c(Cl)cc1NC(=O)C1(C)CCCCC1` [Example 66-53], on CETP [2], the 50% inhibitory concentration (IC50) stood at 15 µM.

As to `CC(C)(C)C(=O)Sc1cc(Cl)c(Cl)cc1NC(=O)C1(C2CC2)CCCCC1` [Example 67], the IC50 at CETP [2] turned out to be 9 µM.

As for `CC(C(=O)Nc1cc(Cl)c(Cl)cc1SC(=O)C(C)(C)C)C1CCCCC1` (stereo not shown) [Example 68], the IC50 at CETP [2] is 10 µM.

As to `CCCCCC1(C(=O)Nc2cc(Cl)c(Cl)cc2SC(=O)C(C)(C)C)CCCCC1` [Example 69], the IC50 on CETP [2] turned out to be 6 µM.

On to `CC(C)(C)C(=O)Sc1cc(Cl)c(Cl)cc1NC(=O)C1(CC2CC2)CCCCC1` [Example 70], for which the IC50 at CETP [2] was 4 µM.

As to `CC(C)(C)C(=O)Sc1cc(Cl)c(Cl)cc1NC(=O)C1(CC2CCCCC2)CCCCC1` [Example 71], on CETP [2], the IC50 came out at 4 µM.

As for `CC(C)CCC1(C(=O)Nc2cc(Cl)c(Cl)cc2SC(=O)C(C)(C)C)CCCCCC1` [Example 72], the IC50 at CETP [2] was 74 µM.

As to `CC(C)CCC1(C(=O)Nc2cc(Cl)c(Cl)cc2SC(=O)C(C)(C)C)CCC1` [Example 73], at CETP [2], the half-maximal inhibitory concentration (IC50) turned out to be 37 µM.

Consider `COc1ccc(SC(=O)C(C)(C)C)c(NC(=O)C2(CCC(C)C)CCCCC2)c1` [Example 78], for which the inhibition at 30 mg/kg at CETP [1] came out at 11%.

With `CC(C)CCC1(C(=O)Nc2cc(Cl)c(Cl)cc2SSc2cc(Cl)c(Cl)cc2NC(=O)C2(CCC(C)C)CCCCC2)CCCCC1` [Example 82, bis-[4,5-dichloro-2-(1-isopentylcyclohexane-carbonylamino)phenyl]disulfide], at CETP [2], the IC50 was determined as 7 µM.

In the case of `CC(C)CCC1(C(=O)Nc2cc(Cl)c(Cl)cc2SSc2cc(Cl)c(Cl)cc2NC(=O)C2(CCC(C)C)CCCC2)CCCC1` [Example 82-1], the IC50 at CETP [2] is 5 µM.

`CC(C)CCC1(C(=O)Nc2ccccc2SSCC2CCCO2)CCCCC1` (stereo not shown) [Example 83, 2-tetrahydrofurylmethyl 2-(1-isopentylcyclohexane-carbonylamino)phenyl disulfide]: at CETP [2], the IC50 came out at 5 µM.

As to `CC(C)(C)C(=O)Nc1ccccc1SSc1ccccc1` [Example 84, phenyl 2-pivaloylaminophenyl disulfide], at CETP [2], the IC50 was 158 µM.
